Source: ChEMBL document CHEMBL6127065, “Design and Synthesis of c-Met and HDAC Dual Inhibitors for the Treatment of Breast Cancer” (ACS Med Chem Lett, 2024)

Experiments:
MDA-MB-453 = test: Antiproliferative activity against human MDA-MB-453 cells assessed as reduction in cell growth incubated for 72 hrs by MTT assay; conditions: MDA-MB-453, 72 h
MDA-MB-231 [1] = test: Induction of apoptosis in human MDA-MB-231 cells assessed as necrotic cells at 10 uM incubated for 48 hrs by AnnexinV-FITC/PI staining based flow cytometry (reference value: 1.79 to 2.53%); assay type: functional
MDA-MB-231 [2] = test: Induction of apoptosis in human MDA-MB-231 cells assessed as late apoptotic cells at 5 uM incubated for 48 hrs by AnnexinV-FITC/PI staining based flow cytometry (reference value: 3.77 to 3.84%); assay type: functional
MDA-MB-468 = test: Antiproliferative activity against human MDA-MB-468 cells assessed as reduction in cell growth incubated for 72 hrs by MTT assay; conditions: MDA-MB-468, 72 h
MDA-MB-231 [3] = test: Antiproliferative activity against human MDA-MB-231 cells assessed as reduction in cell growth incubated for 72 hrs by MTT assay; conditions: MDA-MB-231, 72 h
MDA-MB-231 [4] = test: Induction of apoptosis in human MDA-MB-231 cells assessed as viable cells at […] uM incubated for 48 hrs by AnnexinV-FITC/PI staining based flow cytometry (reference value: 91.22 to 92.84%); assay type: functional; conditions: read-out: Activity
MDA-MB-231 [5] = test: Induction of cell cycle arrest in human MDA-MB-231 cells assessed as accumulation of cells at G2/M phase at 1 uM incubated for 48 hrs by PI staining based flow cytometry (reference value: 29.42 to 32.08%); assay type: functional
MDA-MB-231 [6] = test: Induction of apoptosis in human MDA-MB-231 cells assessed as early apoptotic cells at 2.5 uM incubated for 48 hrs by AnnexinV-FITC/PI staining based flow cytometry (reference value: 1.6 to 2.41%); assay type: functional
MDA-MB-231 [7] = test: Induction of apoptosis in human MDA-MB-231 cells assessed as early apoptotic cells at 5 uM incubated for 48 hrs by AnnexinV-FITC/PI staining based flow cytometry (reference value: 1.6 to 2.41%); assay type: functional
MDA-MB-231 [8] = test: Induction of apoptosis in human MDA-MB-231 cells assessed as viable cells at 10 uM incubated for 48 hrs by AnnexinV-FITC/PI staining based flow cytometry (reference value: 91.22 to 92.84%); assay type: functional; conditions: read-out: Activity
MDA-MB-231 [9] = test: Induction of cell cycle arrest in human MDA-MB-231 cells assessed as accumulation of cells at S phase at 1 uM incubated for 48 hrs by PI staining based flow cytometry (reference value: 12.56 to 14.76%); assay type: functional
MDA-MB-231 [10] = test: Induction of cell cycle arrest in human MDA-MB-231 cells assessed as accumulation of cells at G0/G1 phase at 25 uM incubated for 48 hrs by PI staining based flow cytometry (reference value: 55.36 to 55.82%); assay type: functional
MDA-MB-231 [11] = test: Induction of apoptosis in human MDA-MB-231 cells assessed as viable cells at 5 uM incubated for 48 hrs by AnnexinV-FITC/PI staining based flow cytometry (reference value: 91.22 to 92.84%); assay type: functional; conditions: read-out: Activity
MDA-MB-231 [12] = test: Induction of apoptosis in human MDA-MB-231 cells assessed as necrotic cells at 2.5 uM incubated for 48 hrs by AnnexinV-FITC/PI staining based flow cytometry (reference value: 1.79 to 2.53%); assay type: functional
[13] = Cytotoxicity against human MCF-10A cells assessed as reduction in cell viability incubated for 72 hrs by MTT assay; assay type: toxicity, cell-based
MDA-MB-231 [14] = test: Induction of cell cycle arrest in human MDA-MB-231 cells assessed as accumulation of cells at S phase at 25 uM incubated for 48 hrs by PI staining based flow cytometry (reference value: 12.56 to 14.76%); assay type: functional
MDA-MB-231 [15] = test: Induction of cell cycle arrest in human MDA-MB-231 cells assessed as accumulation of cells at G0/G1 phase at 10 uM incubated for 48 hrs by PI staining based flow cytometry (reference value: 55.36 to 55.82%); assay type: functional
MDA-MB-231 [16] = test: Induction of cell cycle arrest in human MDA-MB-231 cells assessed as accumulation of cells at G0/G1 phase at 1 uM incubated for 48 hrs by PI staining based flow cytometry (reference value: 55.36 to 55.82%); assay type: functional
MDA-MB-231 [17] = test: Induction of apoptosis in human MDA-MB-231 cells assessed as late apoptotic cells at 10 uM incubated for 48 hrs by AnnexinV-FITC/PI staining based flow cytometry (reference value: 3.77 to 3.84%); assay type: functional
MDA-MB-231 [18] = test: Induction of apoptosis in human MDA-MB-231 cells assessed as early apoptotic cells at 10 uM incubated for 48 hrs by AnnexinV-FITC/PI staining based flow cytometry (reference value: 1.6 to 2.41%); assay type: functional
MDA-MB-231 [19] = test: Induction of cell cycle arrest in human MDA-MB-231 cells assessed as accumulation of cells at G2/M phase at 10 uM incubated for 48 hrs by PI staining based flow cytometry (reference value: 29.42 to 32.08%); assay type: functional
MDA-MB-231 [20] = test: Induction of cell cycle arrest in human MDA-MB-231 cells assessed as accumulation of cells at G2/M phase at 2.5 uM incubated for 48 hrs by PI staining based flow cytometry (reference value: 29.42 to 32.08%); assay type: functional
MDA-MB-231 [21] = test: Induction of apoptosis in human MDA-MB-231 cells assessed as late apoptotic cells at […] uM incubated for 48 hrs by AnnexinV-FITC/PI staining based flow cytometry (reference value: 3.77 to 3.84%); assay type: functional; conditions: 1.25 µM
MDA-MB-231 [22] = test: Induction of cell cycle arrest in human MDA-MB-231 cells assessed as accumulation of cells at G2/M phase at 25 uM incubated for 48 hrs by PI staining based flow cytometry (reference value: 29.42 to 32.08%); assay type: functional
MDA-MB-231 [23] = test: Induction of apoptosis in human MDA-MB-231 cells assessed as viable cells at 2.5 uM incubated for 48 hrs by AnnexinV-FITC/PI staining based flow cytometry (reference value: 91.22 to 92.84%); assay type: functional; conditions: read-out: Activity
MDA-MB-231 [24] = test: Induction of cell cycle arrest in human MDA-MB-231 cells assessed as accumulation of cells at S phase at 10 uM incubated for 48 hrs by PI staining based flow cytometry (reference value: 12.56 to 14.76%); assay type: functional
MDA-MB-231 [25] = test: Inhibition of colony formation in human MDA-MB-231 cells at 0.5 to 10 uM incubated for 7 days by crystal violet staining based analysis; assay type: functional, cell-based; conditions: dose 0.5-10 µM, time 7.0 day
[26] = target: Hepatocyte growth factor receptor (Homo sapiens, UniProt P08581); test: Inhibition of c-Met (unknown origin) using Poly(Glu:Tyr)(4:1) and ATP as substrate incubated for 45 mins by Kinase-Glo Max reagent based luminescence analysis
MDA-MB-231 [27] = test: Induction of apoptosis in human MDA-MB-231 cells assessed as necrotic cells at 5 uM incubated for 48 hrs by AnnexinV-FITC/PI staining based flow cytometry (reference value: 1.79 to 2.53%); assay type: functional
MDA-MB-231 [28] = test: Induction of cell cycle arrest in human MDA-MB-231 cells assessed as accumulation of cells at G0/G1 phase at 2.5 uM incubated for 48 hrs by PI staining based flow cytometry (reference value: 55.36 to 55.82%); assay type: functional
MDA-MB-231 [29] = test: Induction of apoptosis in human MDA-MB-231 cells assessed as necrotic cells at […] uM incubated for 48 hrs by AnnexinV-FITC/PI staining based flow cytometry (reference value: 1.79 to 2.53%); assay type: functional; conditions: 1.25 µM
MDA-MB-231 [30] = test: Induction of cell cycle arrest in human MDA-MB-231 cells assessed as accumulation of cells at S phase at 2.5 uM incubated for 48 hrs by PI staining based flow cytometry (reference value: 12.56 to 14.76%); assay type: functional
MDA-MB-231 [31] = test: Induction of apoptosis in human MDA-MB-231 cells assessed as early apoptotic cells at […] uM incubated for 48 hrs by AnnexinV-FITC/PI staining based flow cytometry (reference value: 1.6 to 2.41%); assay type: functional; conditions: 1.25 µM
MDA-MB-231 [32] = test: Induction of apoptosis in human MDA-MB-231 cells assessed as late apoptotic cells at 2.5 uM incubated for 48 hrs by AnnexinV-FITC/PI staining based flow cytometry (reference value: 3.77 to 3.84%); assay type: functional

Sequence of Hepatocyte growth factor receptor (P08581 whole entry): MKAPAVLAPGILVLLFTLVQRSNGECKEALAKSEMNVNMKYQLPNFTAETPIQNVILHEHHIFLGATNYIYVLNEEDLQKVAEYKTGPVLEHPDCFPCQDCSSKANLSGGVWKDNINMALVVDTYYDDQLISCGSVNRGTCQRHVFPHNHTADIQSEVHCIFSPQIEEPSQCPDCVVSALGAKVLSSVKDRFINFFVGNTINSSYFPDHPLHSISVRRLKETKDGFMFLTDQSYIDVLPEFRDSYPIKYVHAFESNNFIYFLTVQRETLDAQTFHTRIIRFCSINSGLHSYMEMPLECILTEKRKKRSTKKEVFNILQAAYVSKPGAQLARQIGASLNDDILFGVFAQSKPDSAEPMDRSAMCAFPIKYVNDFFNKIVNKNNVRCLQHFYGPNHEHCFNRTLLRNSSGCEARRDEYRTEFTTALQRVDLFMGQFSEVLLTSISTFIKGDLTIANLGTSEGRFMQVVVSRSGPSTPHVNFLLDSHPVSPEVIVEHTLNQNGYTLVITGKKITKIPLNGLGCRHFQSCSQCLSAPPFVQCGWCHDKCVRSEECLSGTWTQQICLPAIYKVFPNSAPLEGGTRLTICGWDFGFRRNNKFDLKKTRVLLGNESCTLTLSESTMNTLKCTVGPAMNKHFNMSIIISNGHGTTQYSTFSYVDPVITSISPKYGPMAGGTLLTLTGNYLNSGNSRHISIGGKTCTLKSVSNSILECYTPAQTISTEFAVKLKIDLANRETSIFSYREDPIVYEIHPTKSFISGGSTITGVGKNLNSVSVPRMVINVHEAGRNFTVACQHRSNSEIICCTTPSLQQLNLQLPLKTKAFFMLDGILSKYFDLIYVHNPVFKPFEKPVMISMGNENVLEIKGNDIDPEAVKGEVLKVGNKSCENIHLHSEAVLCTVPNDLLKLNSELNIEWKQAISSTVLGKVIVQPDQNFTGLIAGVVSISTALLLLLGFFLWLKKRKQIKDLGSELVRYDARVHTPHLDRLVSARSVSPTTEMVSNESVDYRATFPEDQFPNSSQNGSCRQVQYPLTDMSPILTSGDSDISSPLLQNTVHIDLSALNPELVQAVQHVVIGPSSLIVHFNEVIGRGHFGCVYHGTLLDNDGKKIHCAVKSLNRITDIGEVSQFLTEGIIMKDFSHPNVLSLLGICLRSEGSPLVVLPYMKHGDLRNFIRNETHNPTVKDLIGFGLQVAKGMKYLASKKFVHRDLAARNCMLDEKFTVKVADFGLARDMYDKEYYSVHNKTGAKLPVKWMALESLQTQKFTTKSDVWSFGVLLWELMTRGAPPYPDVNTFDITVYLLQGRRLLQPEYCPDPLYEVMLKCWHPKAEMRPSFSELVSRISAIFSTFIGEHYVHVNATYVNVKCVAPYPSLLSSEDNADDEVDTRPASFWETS

CC(c1ccc2ncccc2c1)n1nnc2ncc(N3CCN(Cc4ccc(/C=C/C(=O)Nc5ccc(F)cc5N)cc4)CC3)nc21 (centres undefined)
IC50 (MDA-MB-453): 3880 nM | Activity (MDA-MB-231 [1]): 2.15% | Activity (MDA-MB-231 [2]): 8.25% | IC50 (MDA-MB-468): 1250 nM | IC50 (MDA-MB-231 [3]): 1630 nM | viability at 1.25 µM (MDA-MB-231 [4]): 88.8% | Activity (MDA-MB-231 [5]): 21.12% | Activity (MDA-MB-231 [6]): 3.22% | Activity (MDA-MB-231 [7]): 2.65% | viability at 10 µM (MDA-MB-231 [8]): 85.2% | Activity (MDA-MB-231 [9]): 10.25% | Activity (MDA-MB-231 [10]): 74.44% | viability at 5 µM (MDA-MB-231 [11]): 87.1% | Activity (MDA-MB-231 [12]): 2.21% | IC50 at 72 h [13]: > 25000 nM | Activity (MDA-MB-231 [14]): 12.08% | Activity (MDA-MB-231 [15]): 72.67% | Activity (MDA-MB-231 [16]): 68.63% | Activity (MDA-MB-231 [17]): 9.5% | Activity (MDA-MB-231 [18]): 3.12% | Activity (MDA-MB-231 [19]): 15.22% | Activity (MDA-MB-231 [20]): 18.03% | Activity (MDA-MB-231 [21]): 5.18% | Activity (MDA-MB-231 [22]): 13.48% | viability at 2.5 µM (MDA-MB-231 [23]): 87.4% | Activity (MDA-MB-231 [24]): 12.11% | inhibition (MDA-MB-231 [25]): Dose-Dependent Effect | IC50 [26]: 54.9 nM | Activity (MDA-MB-231 [27]): 1.98% | Activity (MDA-MB-231 [28]): 71% | Activity (MDA-MB-231 [29]): 4.05% | Activity (MDA-MB-231 [30]): 9.97% | Activity (MDA-MB-231 [31]): 2% | Activity (MDA-MB-231 [32]): 7.16%
